# Reference: patent US10457666B2, “Stable crystal form of tipiracil hydrochloride and crystallization method for the same” (TAIHO PHARMACEUTICAL CO., LTD., priority 2013, dated 2019)
# Several values for one entry are separate records, joined by “and”; a condition that tells them apart may be missing. Identical values can stand only once.
# Key:
# [1] = Stability test (storage stability after preservation); type: physicochemical; conditions: preservation at 40° C. for six months; for change in powder X-ray diffraction pattern after preservation (storage stability): hydrochloride
# Description: Crystal I, Crystal III, and Crystal II of tipiracil hydrochloride obtained in accordance with Example 1, Example 2, and Reference Example 1 respectively were tested for storage stability after preservation at a temperature of 40° C. for six months.
# [2] = Test for measurement of electric charge amount by air transfer; type: physicochemical; conditions: for Amount of electric charge per unit mass, average value: average of 3 measurements; for Amount of electric charge per unit mass, average value / Amount of electric charge / Amount of electric charge per unit mass: air transfer 130 L/min, SUS electrifying tube, hydrochloride; for Amount of electric charge / Amount of electric charge per unit mass: individual measurements No. 1-3; for polarity of charge: relative to SUS membrane
# Description: Electric charge amounts of Crystal I and Crystal III obtained in accordance with Example 1 and Example 2 respectively were measured by air transfer. Crystal I or Crystal III was put in a powder supply part of an electrifying tube (made of SUS, 24.6×500 mm), and was left for 10 minutes. The sample was transferred by air at a flow rate of 130 L/min and the electric charge amount was calculated from the current value at that time obtained from the electrifying tube. ? =−∫0^tIdt Q: Amount of electric charge [C] I: Current generated during measurement [A] t: Measuring time […]
# The measurement was performed 5 times, of which 3 times that gave stable results were adopted. The average of the values of the 3 times was regarded as the measured value.
amounts of analogous substances after preservation [1],change in powder X-ray diffraction pattern after preservation (storage stability) [1],"Amount of electric charge per unit mass, average value [2]",polarity of charge [2],charge relative to Crystal I ([2]; comparison of Table 2 and Table 3),Structure (SMILES),Amount of electric charge [2],Amount of electric charge per unit mass [2]
small and not increased,no change,1.0 × 10^−7 C/g,(positively-charged,–,"Cl.N=C1CCCN1Cc1[nH]c(=O)[nH]c(=O)c1Cl [Crystal I, 5-chloro-6-(2-iminopyrrolidin-1-yl)methyl-2,4(1H,3H)-pyrimidinedione hydrochloride]",5.3 × 10^−8 C and 5.0 × 10^−8 C,1.1 × 10^−7 C/g and 9.7 × 10^−8 C/g and 9.8 × 10^−8 C/g
–,not the same,–,–,–,"Cl.N=C1CCCN1Cc1[nH]c(=O)[nH]c(=O)c1Cl [Crystal II, 5-chloro-6-(2-iminopyrrolidin-1-yl)methyl-2,4(1H,3H)-pyrimidinedione hydrochloride]",–,–
small and not increased,no change,3.5 × 10^−7 C/g,(positively-charged,three times as much charge as Crystal I,"Cl.N=C1CCCN1Cc1[nH]c(=O)[nH]c(=O)c1Cl [Crystal III, 5-chloro-6-(2-iminopyrrolidin-1-yl)methyl-2,4(1H,3H)-pyrimidinedione hydrochloride]",2.0 × 10^−7 C and 2.1 × 10^−7 C and 1.8 × 10^−7 C,3.2 × 10^−7 C/g (2×) and 4.2 × 10^−7 C/g
